Experimental data reported in ChEMBL document CHEMBL4304757, “Synthetic heterocyclic candidates as promising α-glucosidase inhibitors: An overview” (Eur J Med Chem, 2019).

Biological target: T1, Alpha glucosidase (Homo sapiens, UniProt O43451+P10253+P14410+Q2M2H8)
Experiment: Inhibition of alpha-glucosidase (unknown origin) using pNPG as substrate preincubated for 10 mins followed by substrate addition measured after 30 mins
Format: protein assay

IC50	Compound
2.3 µM	O=C(N/N=C/c1cc(O)c(O)c(O)c1)c1cc2ccccc2[nH]1
2.3 to 226 µM	O=C(N/N=C/c1cc(O)cc(O)c1)c1cc2ccccc2[nH]1
8.3 to 98 µM	FC(F)(F)c1ccc(-c2[nH]c3ccccc3c2-c2nc(-c3ccccc3)c(-c3ccccc3)n2-c2ccccc2)cc1
2.3 to 226 µM	COc1ccc(O)c(/C=N/NC(=O)c2cc3ccccc3[nH]2)c1
8.3 to 98 µM	Clc1cccc(-c2[nH]c3ccccc3c2-c2nc(-c3ccccc3)c(-c3ccccc3)n2-c2ccccc2)c1
2.3 to 226 µM	O=C(N/N=C/c1c(O)cc(O)cc1O)c1cc2ccccc2[nH]1
8.3 to 98 µM	COc1ccc(-n2c(-c3c(-c4cccc(Br)c4)[nH]c4ccccc34)nc(-c3ccccc3)c2-c2ccccc2)cc1
2.3 to 226 µM	COc1cc(/C=N/NC(=O)c2cc3ccccc3[nH]2)ccc1O
2.3 to 226 µM	O=C(N/N=C/c1cccc(O)c1O)c1cc2ccccc2[nH]1
8.3 µM	CC(=O)Nc1ccc(-n2c(-c3c(-c4ccccc4)[nH]c4ccc(F)cc34)nc(-c3ccccc3)c2-c2ccccc2)cc1
2.3 to 226 µM	COc1ccc(/C=N/NC(=O)c2cc3ccccc3[nH]2)cc1O

The remaining lines, values behind:

Compound	IC50
O=C(N/N=C/c1ccc(O)cc1)c1cc2ccccc2[nH]1	2.3 to 226 µM
Brc1ccc(-n2c(-c3c(-c4cccc(Br)c4)[nH]c4ccccc34)nc(-c3ccccc3)c2-c2ccccc2)cc1	8.3 to 98 µM
Fc1ccc2[nH]c(-c3ccccc3)c(-c3nc(-c4ccccc4)c(-c4ccccc4)n3-c3cccc(Cl)c3)c2c1	8.3 to 98 µM
O=C(N/N=C/c1cc(O)ccc1O)c1cc2ccccc2[nH]1	2.3 to 226 µM
Fc1ccc2[nH]c(-c3ccccc3)c(-c3nc(-c4ccccc4)c(-c4ccccc4)n3-c3ccccc3)c2c1	8.3 to 98 µM
O=C(N/N=C/c1ccc(Br)c(F)c1)c1cc2ccccc2[nH]1	2.3 to 226 µM
O=C(N/N=C/c1ccccc1O)c1cc2ccccc2[nH]1	2.3 to 226 µM
COc1ccc(/C=N/NC(=O)c2cc3ccccc3[nH]2)c(I)c1O	2.3 to 226 µM

Biological target: not listed separately
Experiment: Inhibition of yeast alpha-glucosidase using p-nitrophenyl-alpha-d-glucopyranoside as substrate preincubated for 10 mins followed by substrate addition measured after 20 mins
Parameters: species or system Saccharomyces cerevisiae

IC50	Compound
10 to 172 µM	COc1cc(C2C(C#N)=C(N)Oc3c2c(=O)[nH]c2c3ccc3ccccc32)ccc1O (configuration not stated)
10 to 172 µM	Cc1ccsc1C1C(C#N)=C(N)Oc2c1c(=O)[nH]c1c2ccc2ccccc21 (configuration not stated)

The remaining lines, values behind:

Compound	IC50
N#CC1=C(N)Oc2c(c(=O)[nH]c3c2ccc2ccccc23)C1c1ccc(O)cc1 (configuration not stated)	10 to 172 µM
N#CC1=C(N)Oc2c(c(=O)[nH]c3c2ccc2ccccc23)C1c1ccc(Br)cc1 (configuration not stated)	10 to 172 µM
N#CC1=C(N)Oc2c(c(=O)[nH]c3c2ccc2ccccc23)C1c1ccncc1 (configuration not stated)	10 to 172 µM
N#CC1=C(N)Oc2c(c(=O)[nH]c3c2ccc2ccccc23)C1c1cccc([N+](=O)[O-])c1 (configuration not stated)	10 to 172 µM
COc1ccc(C2C(C#N)=C(N)Oc3c2c(=O)[nH]c2c3ccc3ccccc32)cc1 (configuration not stated)	10 to 172 µM
N#CC1=C(N)Oc2c(c(=O)[nH]c3c2ccc2ccccc23)C1c1ccc(F)cc1 (configuration not stated)	15 µM
N#CC1=C(N)Oc2c(c(=O)[nH]c3c2ccc2ccccc23)C1c1ccc([N+](=O)[O-])cc1 (configuration not stated)	10 to 172 µM
N#CC1=C(N)Oc2c(c(=O)[nH]c3c2ccc2ccccc23)C1c1ccccc1Br (configuration not stated)	10 to 172 µM
CN(C)c1ccc(C2C(C#N)=C(N)Oc3c2c(=O)[nH]c2c3ccc3ccccc32)cc1 (configuration not stated)	10 to 172 µM
Cc1ccc(C2C(C#N)=C(N)Oc3c2c(=O)[nH]c2c3ccc3ccccc32)cc1 (configuration not stated)	10 to 172 µM
N#CC1=C(N)Oc2c(c(=O)[nH]c3c2ccc2ccccc23)C1c1cccc(O)c1 (configuration not stated)	10 to 172 µM
N#CC1=C(N)Oc2c(c(=O)[nH]c3c2ccc2ccccc23)C1c1ccccc1 (configuration not stated)	10 to 172 µM
N#CC1=C(N)Oc2c(c(=O)[nH]c3c2ccc2ccccc23)C1c1cccc(F)c1 (configuration not stated)	10 to 172 µM
COc1ccc(C2C(C#N)=C(N)Oc3c2c(=O)[nH]c2c3ccc3ccccc32)cc1OC (configuration not stated)	10 to 172 µM
N#CC1=C(N)Oc2c(c(=O)[nH]c3c2ccc2ccccc23)C1c1ccc(Cl)cc1 (configuration not stated)	10 µM

Biological target: T1, Alpha glucosidase
Experiment: Inhibition of alpha-glucosidase (unknown origin) using p-nitrophenyl-alpha-d-glucopyranoside as substrate preincubated for 5 mins followed by substrate addition measured after 30 mins
Format: protein assay

IC50	Compound
0.1 to 0.15 µM	Cc1cs/c(=N\C(=O)c2ccccc2Cl)n1-c1cc(Cl)c(Cl)cc1Cl
0.1 to 0.15 µM	Cc1cs/c(=N\C(=O)c2cc3ccccc3oc2=O)n1-c1cc(Cl)c(Cl)cc1Cl

More lines, now with the values behind:

Compound	IC50
COc1ccc(C(=O)/N=c2\scc(C)n2-c2cc(Cl)c(Cl)cc2Cl)cc1	0.1 to 0.15 µM
Cc1cccc(C(=O)/N=c2\scc(C)n2-c2cc(Cl)c(Cl)cc2Cl)c1	0.1 to 0.15 µM
Cc1cs/c(=N\C(=O)c2ccco2)n1-c1cc(Cl)c(Cl)cc1Cl	0.1 to 0.15 µM

Biological target: T1, Alpha glucosidase
Experiment: Inhibition of alpha-glucosidase (unknown origin) using p-nitrophenyl-alpha-d-glucopyranoside as substrate preincubated for 10 mins followed by substrate addition measured after 30 mins
Format: protein assay

IC50	Compound
0.4 to 38 µM	COc1ccc(NC(=S)NNC(=O)c2ccc(-c3nnc(-c4ccccc4Cl)o3)cc2)cc1
2.3 to 29 µM	CCOC(=O)C1=C(Nc2cccc(Cl)c2)C[C@@H](c2ccc(Cl)cc2)N(c2cccc(Cl)c2)[C@@H]1c1ccc(Cl)cc1
0.4 to 38 µM	O=C(NNC(=S)Nc1ccc(Br)cc1)c1ccc(-c2nnc(-c3ccccc3Cl)o2)cc1
0.4 to 38 µM	O=C(NNC(=S)Nc1cccc(F)c1)c1ccc(-c2nnc(-c3ccccc3Cl)o2)cc1
0.4 to 38 µM	O=C(NNC(=S)Nc1cccc([N+](=O)[O-])c1)c1ccc(-c2nnc(-c3ccccc3Cl)o2)cc1
0.4 µM	O=C(NNC(=S)Nc1ccccc1F)c1ccc(-c2nnc(-c3ccccc3Cl)o2)cc1

More lines, now with the values behind:

Compound	IC50
COc1cccc(NC(=S)NNC(=O)c2ccc(-c3nnc(-c4ccccc4Cl)o3)cc2)c1	0.4 to 38 µM
O=C(NNC(=S)Nc1ccc(C(F)(F)F)cc1)c1ccc(-c2nnc(-c3ccccc3Cl)o2)cc1	0.6 µM
CCOC(=O)C1=C(Nc2cccc(Br)c2)C[C@@H](c2ccc(Cl)cc2)N(c2cccc(Br)c2)[C@@H]1c1ccc(Cl)cc1	2.3 µM
O=C(NNC(=S)Nc1ccc(Cl)c(Cl)c1)c1ccc(-c2nnc(-c3ccccc3Cl)o2)cc1	0.4 to 38 µM
O=C(NNC(=S)Nc1ccccc1Cl)c1ccc(-c2nnc(-c3ccccc3Cl)o2)cc1	0.7 µM
COc1ccccc1NC(=S)NNC(=O)c1ccc(-c2nnc(-c3ccccc3Cl)o2)cc1	0.4 to 38 µM
O=C(NNC(=S)Nc1ccc(Cl)cc1)c1ccc(-c2nnc(-c3ccccc3Cl)o2)cc1	0.4 to 38 µM
CCOC(=O)C1=C(Nc2cccc([N+](=O)[O-])c2)C[C@@H](c2ccc(C)cc2)N(c2cccc([N+](=O)[O-])c2)[C@@H]1c1ccc(C)cc1	2.3 to 29 µM
Cc1ccc(NC(=S)NNC(=O)c2ccc(-c3nnc(-c4ccccc4Cl)o3)cc2)cc1	0.4 to 38 µM
Cc1cccc(NC(=S)NNC(=O)c2ccc(-c3nnc(-c4ccccc4Cl)o3)cc2)c1	0.4 to 38 µM
O=C(NNC(=S)Nc1ccccc1Br)c1ccc(-c2nnc(-c3ccccc3Cl)o2)cc1	0.4 to 38 µM
CCOC(=O)C1=C(Nc2cccc(F)c2)C[C@@H](c2ccc(Cl)cc2)N(c2cccc(F)c2)[C@@H]1c1ccc(Cl)cc1	2.3 to 29 µM
O=C(NNC(=S)Nc1ccc([N+](=O)[O-])cc1)c1ccc(-c2nnc(-c3ccccc3Cl)o2)cc1	0.4 to 38 µM
O=C(NNC(=S)Nc1ccc(F)cc1)c1ccc(-c2nnc(-c3ccccc3Cl)o2)cc1	0.4 to 38 µM

Biological target: T1, Alpha glucosidase
Experiment: Inhibition of alpha-glucosidase (unknown origin) using p-nitro phenyl glucopyranoside as substrate preincubated for 10 mins followed by substrate addition measured after 30 mins
Format: protein assay

IC50	Compound
6.2 to 81 µM	O=C(N/N=C/c1cc(Cl)ccc1O)c1nc(-c2cc3ccccc3oc2=O)cs1
6.2 to 81 µM	CC(C)(C)c1cc(/C=N/NC(=O)c2nc(-c3cc4ccccc4oc3=O)cs2)c(O)c(C(C)(C)C)c1
6.2 to 81 µM	O=C(N/N=C/c1cccc(Cl)c1)c1nc(-c2cc3ccccc3oc2=O)cs1
6.2 to 81 µM	O=C(N/N=C/c1ccccc1F)c1nc(-c2cc3ccccc3oc2=O)cs1
6.2 to 81 µM	O=C(N/N=C/c1ccc(O)cc1)c1nc(-c2cc3ccccc3oc2=O)cs1
6.2 to 81 µM	O=C(N/N=C/c1cc(O)ccc1O)c1nc(-c2cc3ccccc3oc2=O)cs1
6.2 to 81 µM	O=C(N/N=C/c1ccc(C(F)(F)F)cc1)c1nc(-c2cc3ccccc3oc2=O)cs1

Further lines, the compound ahead of its results:

Compound	IC50
O=C(N/N=C/c1ccc(Cl)cc1)c1nc(-c2cc3ccccc3oc2=O)cs1	6.2 to 81 µM
O=C(N/N=C/c1ccccc1O)c1nc(-c2cc3ccccc3oc2=O)cs1	6.2 to 81 µM
O=C(N/N=C/c1cccc(F)c1)c1nc(-c2cc3ccccc3oc2=O)cs1	6.2 to 81 µM
O=C(N/N=C/c1ccc(O)c(F)c1)c1nc(-c2cc3ccccc3oc2=O)cs1	6.2 to 81 µM
O=C(N/N=C/c1cccc(Br)c1)c1nc(-c2cc3ccccc3oc2=O)cs1	6.2 to 81 µM
COc1ccc(/C=N/NC(=O)c2nc(-c3cc4ccccc4oc3=O)cs2)cc1	6.2 to 81 µM
COc1ccccc1/C=N/NC(=O)c1nc(-c2cc3ccccc3oc2=O)cs1	6.2 to 81 µM

Biological target: not listed separately
Experiment: Inhibition of yeast alpha-glucosidase using p-nitrophenyl-alpha-d-glucopyranoside as substrate preincubated for 5 mins followed by substrate addition measured after 5 mins
Parameters: species or system Saccharomyces cerevisiae

IC50	Compound
12 to 162 µM	O=[N+]([O-])c1ccc2cc(-c3nnc(-c4ccccc4O)o3)oc2c1
12 to 162 µM	COc1ccc(-c2nnc(-c3cc4ccc([N+](=O)[O-])cc4o3)o2)cc1O

Second part, the compound before the results:

Compound	IC50
O=[N+]([O-])c1ccc2cc(-c3nnc(-c4cc(O)ccc4O)o3)oc2c1	12 to 162 µM
COc1ccc(-c2nnc(-c3cc4ccc([N+](=O)[O-])cc4o3)o2)c(O)c1	12 to 162 µM
COc1ccc(O)c(-c2nnc(-c3cc4ccc([N+](=O)[O-])cc4o3)o2)c1	12 to 162 µM
O=[N+]([O-])c1ccc2cc(-c3nnc(-c4ccc(O)cc4)o3)oc2c1	12 to 162 µM
O=[N+]([O-])c1ccc2cc(-c3nnc(-c4ccc(O)c(O)c4)o3)oc2c1	12 to 162 µM
O=[N+]([O-])c1ccc2cc(-c3nnc(-c4ccc(Cl)cc4)o3)oc2c1	12 to 162 µM
O=[N+]([O-])c1ccc2cc(-c3nnc(-c4ccccc4F)o3)oc2c1	12 to 162 µM
O=[N+]([O-])c1ccc2cc(-c3nnc(-c4cccc(Cl)c4)o3)oc2c1	12 to 162 µM
O=[N+]([O-])c1ccc2cc(-c3nnc(-c4cccc(O)c4O)o3)oc2c1	12 µM
O=[N+]([O-])c1ccc2cc(-c3nnc(-c4ccccc4Cl)o3)oc2c1	12 to 162 µM
O=[N+]([O-])c1ccc2cc(-c3nnc(-c4cccc(F)c4)o3)oc2c1	12 to 162 µM
O=[N+]([O-])c1ccc2cc(-c3nnc(-c4cccc(O)c4)o3)oc2c1	12 to 162 µM
O=[N+]([O-])c1ccc2cc(-c3nnc(-c4ccc(F)cc4)o3)oc2c1	12 to 162 µM
O=[N+]([O-])c1ccc2cc(-c3nnc(-c4cc(O)cc(O)c4)o3)oc2c1	12 to 162 µM
O=[N+]([O-])c1ccc2cc(-c3nnc(-c4ccc(O)cc4O)o3)oc2c1	12 to 162 µM
